The supplement of paper PMC6045584
± gives the standard deviation of the averaged measurements.

Tests used:
SNX-5422 = compound: CC1(C)CC(=O)c2c(C(F)(F)F)nn(-c3ccc(C(N)=O)c(N[C@H]4CC[C@H](OC(=O)CN)CC4)c3)c2C1 [SNX-5422]; experiment: surviving fraction relative to DMSO-only wells; higher = less growth inhibition; conditions: exposure time: 5 days
Procedure, shortened: (§1)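 Viability was scored with CellTiter-Glo luminescence and normalised to the median of DMSO-only wells as surviving fraction. Beforehand, log-phase tumour cell lines were seeded at 250–500 cells per well in 384-well plates, allowed 24 hours, and exposed continuously for five days to inhibitors at 0.5, 1, 5, 10, 50, 100, 500 and 1000 nM. Only lines whose three screens gave replicate Pearson r >0.7 and median Z' >0.3 were kept.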

AFATINIB = compound: CN(C)C/C=C/C(=O)Nc1cc2c(Nc3ccc(F)c(Cl)c3)ncnc2cc1O[C@H]1CCOC1 [AFATINIB]; experiment: as above; conditions: exposure time: 5 days
Procedure, shortened: as §1

CANERTINIB = compound: C=CC(=O)Nc1cc2c(Nc3ccc(F)c(Cl)c3)ncnc2cc1OCCCN1CCOCC1 [CANERTINIB]; experiment: area under dose-response curve of surviving fraction (unscaled, Aref=0) (surviving fraction x log10(nM)); higher = more resistant; conditions: exposure time: 5 days; dose range 0.5-1000 nM
Procedure, shortened: (§2)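 Three screens per tumour cell line were run in 384-well plates at eight inhibitor concentrations from 0.5 to 1000 nM over five days. Surviving fractions, from CellTiter-Glo luminescence normalised to DMSO-only wells, were fitted with 3-parameter logistic curves in the drc R package. The reported area under the curve is the unscaled activity area. It spans log10 dose, and Aref is 0.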

SAPACITABINE = compound: CCCCCCCCCCCCCCCC(=O)Nc1ccn([C@@H]2O[C@H](CO)[C@@H](O)[C@@H]2C#N)c(=O)n1 [SAPACITABINE]; experiment: as above; conditions: exposure time: 5 days; dose range 0.5-1000 nM
Procedure, shortened: as §2

BI-2536 = compound: CC[C@@H]1C(=O)N(C)c2cnc(Nc3ccc(C(=O)NC4CCN(C)CC4)cc3OC)nc2N1C1CCCC1 [BI-2536]; experiment: as above; conditions: exposure time: 5 days; dose range 0.5-1000 nM
Procedure, shortened: as §2

[1] = compound: Cn1cc(C2=Nc3cc(NC(=O)C(N)C4CCCCC4)cc4c3C2=CNNC4=O)cn1; experiment: as above; conditions: exposure time: 5 days; dose range 0.5-1000 nM
Procedure, shortened: as §2

In the case of OS25HAL BONE, the surviving fraction (SNX-5422; 0.5 nM) is reported as 0.9827 ± 0.0029, the surviving fraction (SNX-5422; 1 nM) is reported as 1.004 ± 0.0087 and the surviving fraction (SNX-5422; 5 nM) is reported as 1.03 ± 0.019. The surviving fraction (SNX-5422; 10 nM) was 0.998 ± 0.036, the surviving fraction (SNX-5422; 50 nM) was 0.789 ± 0.12 and the surviving fraction (SNX-5422; 100 nM) was 0.257 ± 0.031. For the same test system, the surviving fraction (SNX-5422; 500 nM) was 0.13 ± 0.018, the surviving fraction (SNX-5422; 1000 nM) was 0.132 ± 0.023 and the surviving fraction (AFATINIB; 0.5 nM) was 0.966 ± 0.014. It also gave a surviving fraction (AFATINIB; 1 nM) of 1.01 ± 0.018, a surviving fraction (AFATINIB; 5 nM) of 1 ± 0.029 and a surviving fraction (AFATINIB; 10 nM) of 1 ± 0.044. The surviving fraction (AFATINIB; 50 nM) was 1.03 ± 0.039, the surviving fraction (AFATINIB; 100 nM) was 1.08 ± 0.013 and the surviving fraction (AFATINIB; 500 nM) was 1.02 ± 0.03. For the same test system, the surviving fraction (AFATINIB; 1000 nM) was 0.855 ± 0.085, the “area under dose-response curve” value (CANERTINIB) was 3.13 and the “area under dose-response curve” value (SAPACITABINE) was 2.79. The “area under dose-response curve” value (BI-2536) was 0.792 and the “area under dose-response curve” value [1] was 2.71.

For SYO1 SYNOVIAL, the surviving fraction (SNX-5422; 0.5 nM) was 1.03 ± 0.031, the surviving fraction (SNX-5422; 1 nM) was 0.993 ± 0.089 and the surviving fraction (SNX-5422; 5 nM) was 1.02 ± 0.016. For the same test system, the surviving fraction (SNX-5422; 10 nM) was 0.846 ± 0.059, the surviving fraction (SNX-5422; 50 nM) was 0.122 ± 0.049 and the surviving fraction (SNX-5422; 100 nM) was 0.0776 ± 0.021. For the same test system, the surviving fraction (SNX-5422; 500 nM) was 0.0327 ± 0.0032, the surviving fraction (SNX-5422; 1000 nM) was 0.0335 ± 0.0013 and the surviving fraction (AFATINIB; 0.5 nM) was 0.996 ± 0.057. The surviving fraction (AFATINIB; 1 nM) was 1.03 ± 0.027, the surviving fraction (AFATINIB; 5 nM) was 0.948 ± 0.059 and the surviving fraction (AFATINIB; 10 nM) was 0.995 ± 0.026. The surviving fraction (AFATINIB; 50 nM) was 0.95 ± 0.017, the surviving fraction (AFATINIB; 100 nM) was 0.952 ± 0.042 and the surviving fraction (AFATINIB; 500 nM) was 0.606 ± 0.035. The surviving fraction (AFATINIB; 1000 nM) was 0.324 ± 0.02, the “area under dose-response curve” value (CANERTINIB) was 2.48 and the “area under dose-response curve” value (SAPACITABINE) was 1.23. For the same test system, the “area under dose-response curve” value (BI-2536) was 0.562 and the “area under dose-response curve” value [1] was 1.84.

S68 BREAST was tested, and the surviving fraction (SNX-5422; 0.5 nM) was 0.798 ± 0.3, the surviving fraction (SNX-5422; 1 nM) was 1.09 ± 0.27 and the surviving fraction (SNX-5422; 5 nM) was 0.891 ± 0.2. For the same test system, the surviving fraction (SNX-5422; 10 nM) was 0.913 ± 0.18, the surviving fraction (SNX-5422; 50 nM) was 0.154 ± 0.019 and the surviving fraction (SNX-5422; 100 nM) was 0.128 ± 0.021. It also gave a surviving fraction (SNX-5422; 500 nM) of 0.06 ± 0.0035, a surviving fraction (SNX-5422; 1000 nM) of 0.0703 ± 0.0051 and a surviving fraction (AFATINIB; 0.5 nM) of 0.958 ± 0.2. It also gave a surviving fraction (AFATINIB; 1 nM) of 0.976 ± 0.33, a surviving fraction (AFATINIB; 5 nM) of 0.735 ± 0.085 and a surviving fraction (AFATINIB; 10 nM) of 0.809 ± 0.14. It also gave a surviving fraction (AFATINIB; 50 nM) of 0.656 ± 0.12, a surviving fraction (AFATINIB; 100 nM) of 0.907 ± 0.14 and a surviving fraction (AFATINIB; 500 nM) of 0.478 ± 0.064. For the same test system, the surviving fraction (AFATINIB; 1000 nM) was 0.314 ± 0.055, the “area under dose-response curve” value (CANERTINIB) was 2.53 and the “area under dose-response curve” value (SAPACITABINE) was 1.85. For the same test system, the “area under dose-response curve” value (BI-2536) was 1.03 and the “area under dose-response curve” value [1] was 2.05.

MDAMB157 BREAST was tested, and the surviving fraction (SNX-5422; 0.5 nM) was 0.999 ± 0.11, the surviving fraction (SNX-5422; 1 nM) was 0.958 ± 0.067 and the surviving fraction (SNX-5422; 5 nM) was 0.941 ± 0.059. It also gave a surviving fraction (SNX-5422; 10 nM) of 1.11 ± 0.043, a surviving fraction (SNX-5422; 50 nM) of 0.575 ± 0.12 and a surviving fraction (SNX-5422; 100 nM) of 0.266 ± 0.06. For the same test system, the surviving fraction (SNX-5422; 500 nM) was 0.258 ± 0.043, the surviving fraction (SNX-5422; 1000 nM) was 0.191 ± 0.01 and the surviving fraction (AFATINIB; 0.5 nM) was 0.993 ± 0.14. The surviving fraction (AFATINIB; 1 nM) was 0.975 ± 0.048, the surviving fraction (AFATINIB; 5 nM) was 0.96 ± 0.09 and the surviving fraction (AFATINIB; 10 nM) was 0.976 ± 0.16. It also gave a surviving fraction (AFATINIB; 50 nM) of 0.979 ± 0.069, a surviving fraction (AFATINIB; 100 nM) of 0.944 ± 0.12 and a surviving fraction (AFATINIB; 500 nM) of 0.85 ± 0.097. For the same test system, the surviving fraction (AFATINIB; 1000 nM) was 0.526 ± 0.06, the “area under dose-response curve” value (CANERTINIB) was 2.78 and the “area under dose-response curve” value (SAPACITABINE) was 2.24. For the same test system, the “area under dose-response curve” value (BI-2536) was 0.791 and the “area under dose-response curve” value [1] was 2.88.

With SG31 HEADNECK the surviving fraction (SNX-5422; 0.5 nM) was 1.03 ± 0.12, the surviving fraction (SNX-5422; 1 nM) was 1.09 ± 0.22 and the surviving fraction (SNX-5422; 5 nM) was 1.05 ± 0.096. It also gave a surviving fraction (SNX-5422; 10 nM) of 0.876 ± 0.14, a surviving fraction (SNX-5422; 50 nM) of 0.61 ± 0.024 and a surviving fraction (SNX-5422; 100 nM) of 0.187 ± 0.029. For the same test system, the surviving fraction (SNX-5422; 500 nM) was 0.0373 ± 0.0076, the surviving fraction (SNX-5422; 1000 nM) was 0.0403 ± 0.006 and the surviving fraction (AFATINIB; 0.5 nM) was 0.967 ± 0.1. For the same test system, the surviving fraction (AFATINIB; 1 nM) was 0.947 ± 0.046, the surviving fraction (AFATINIB; 5 nM) was 0.62 ± 0.11 and the surviving fraction (AFATINIB; 10 nM) was 0.615 ± 0.18. For the same test system, the surviving fraction (AFATINIB; 50 nM) was 0.515 ± 0.12, the surviving fraction (AFATINIB; 100 nM) was 0.471 ± 0.13 and the surviving fraction (AFATINIB; 500 nM) was 0.528 ± 0.035. For the same test system, the surviving fraction (AFATINIB; 1000 nM) was 0.452 ± 0.054, the “area under dose-response curve” value (CANERTINIB) was 2.3 and the “area under dose-response curve” value (SAPACITABINE) was 2.62. For the same test system, the “area under dose-response curve” value (BI-2536) was 2.2 and the “area under dose-response curve” value [1] was 2.91.

BT549 BREAST showed a surviving fraction (SNX-5422; 0.5 nM) of 1.1 ± 0.22, a surviving fraction (SNX-5422; 1 nM) of 0.861 ± 0.11 and a surviving fraction (SNX-5422; 5 nM) of 1.19 ± 0.077. The surviving fraction (SNX-5422; 10 nM) was 1.05 ± 0.11, the surviving fraction (SNX-5422; 50 nM) was 0.216 ± 0.02 and the surviving fraction (SNX-5422; 100 nM) was 0.187 ± 0.059. The surviving fraction (SNX-5422; 500 nM) was 0.0503 ± 0.011, the surviving fraction (SNX-5422; 1000 nM) was 0.0473 ± 0.0074 and the surviving fraction (AFATINIB; 0.5 nM) was 1.08 ± 0.1. For the same test system, the surviving fraction (AFATINIB; 1 nM) was 1.12 ± 0.072, the surviving fraction (AFATINIB; 5 nM) was 1.11 ± 0.11 and the surviving fraction (AFATINIB; 10 nM) was 1.07 ± 0.2. The surviving fraction (AFATINIB; 50 nM) was 0.919 ± 0.15, the surviving fraction (AFATINIB; 100 nM) was 1.09 ± 0.066 and the surviving fraction (AFATINIB; 500 nM) was 0.696 ± 0.15. For the same test system, the surviving fraction (AFATINIB; 1000 nM) was 0.278 ± 0.082, the “area under dose-response curve” value (CANERTINIB) was 2.74 and the “area under dose-response curve” value (SAPACITABINE) was 1.85. For the same test system, the “area under dose-response curve” value (BI-2536) was 0.891 and the “area under dose-response curve” value [1] was 2.19.
